These results are taken from DBAASP.

The term MIC denotes the smallest concentration in the dilution series that meets the test's criterion for growth inhibition. Read a high MIC as weaker potency.

Values after ≈ are worked out from the molar mass of the structure shown. Values joined by “and” are separate entries in the source; they are usually repeats but may differ in a detail not shown here. Identical values can stand only once.

Holding throughout (assay): ≥ marks a high value that may be exact or a test limit, other limits are often not marked, values filed in µg/mL are converted to µM
Assay [1] deals with Staphylococcus epidermidis ATCC 12228.
For assay [2], the system named is Pseudomonas aeruginosa ATCC 15692.
The test system of assay [3] is Listeria monocytogenes ATCC 3710.
Assay [4] concerns Proteus vulgaris KCTC 2433.
Assay [5] deals with Staphylococcus aureus ATCC 29213.
Assay [6] relates to Bacillus subtilis KCTC 1998.
Assay [7] deals with Escherichia coli ATCC 25922.
Assay [8] has as its system Staphylococcus aureus CMCC 26003.
The subject of assay [9] is Listeria monocytogenes ATCC 19115.
Assay [10] relates to Cryptococcus neoformans ATCC 28957.
Assay [11] relates to Bacillus subtilis ATCC 23857.
The subject of assay [12] is Fusarium oxysporum f.sp. vasinfectum.
For assay [13], the system named is Ramulariopsis gossypii.
The test system of assay [14] is Pectobacterium carotovorum.
Assay [15] relates to Fusarium oxysporum.
The subject of assay [16] is Xanthomonas campestris pv. citri.
Assay [17] deals with Pseudomonas syringae pv. tabaci.
The subject of assay [18] is Candida albicans ATCC 90028.
In assay [19] the test system is Trichoderma asperellum.
Assay [20] has as its system Saccharomyces cerevisiae SZMC 0644.
The subject of assay [21] is Candida krusei CBS 573.
Assay [22] concerns Candida albicans ATCC 10231.
The subject of assay [23] is Candida parapsilosis CBS 604.
Assay [24] has as its system Klebsiella pneumoniae.
In assay [25] the test system is Streptococcus agalactiae ATCC 27956.
The subject of assay [26] is Staphylococcus aureus ATCC 6538.
Assay [27] deals with Bacillus cereus ATCC 10876.
Assay [28] has as its system Salmonella enterica subsp. enterica serovar Typhimurium ATCC 14028.
Assay [29] deals with Streptococcus dysgalactiae subsp. dysgalactiae ATCC 27957.
In assay [30] the test system is Streptococcus iniae KCTC 3657.
Assay [31] relates to Staphylococcus aureus ATCC 25923.
For assay [32], the system named is Streptococcus equi subsp. zooepidemicus ATCC 43079.
Assay [33] has as its system Pseudomonas aeruginosa ATCC 27853.
Assay [34] relates to Enterococcus faecalis ATCC 29212.
The test system of assay [35] is Aeromonas hydrophila.
Assay [36] relates to Streptococcus pyogenes.
The test system of assay [37] is Vibrio parahaemolyticus.
The test system of assay [38] is Vibrio alginolyticus.
Assay [39] has as its system Vibrio fluvialis.
Assay [40] has as its system Escherichia coli.
For assay [41], the system named is Staphylococcus aureus.

As for `CC[C@H](C)[C@H](NC(=O)CNC(=O)[C@H](Cc1cnc[nH]1)NC(=O)[C@H](CCCCN)NC(=O)[C@@H](NC(=O)[C@H](CO)NC(=O)CNC(=O)[C@@H](NC(=O)[C@H](Cc1ccccc1)NC(=O)[C@H](CCCN=C(N)N)NC(=O)[C@H](CCCCN)NC(=O)[C@@H](N)Cc1ccccc1)[C@@H](C)CC)C(C)C)C(=O)NCC(=O)N[C@@H](Cc1cnc[nH]1)C(=O)N[C@@H](CC(C)C)C(=O)N[C@H](C(=O)N[C@@H](Cc1cnc[nH]1)C(=O)N[C@@H](Cc1cnc[nH]1)C(=O)N[C@H](C(=O)NCC(=O)N[C@H](C(=O)N[C@@H](C)C(=O)N[C@@H](CC(C)C)C(N)=O)C(C)C)[C@@H](C)CC)C(C)C` [FKRFIGSVKHGIGHLVHHIGVAL], the MIC is 4 µM and 8 µM in assay [1]; no less than 32 µM in assay [2]; 16 µM and 8 µM in assay [3]; 4 µM and 8 µM in assay [4]; 8 µM (≈ 20.2 µg/mL) in assay [5]; 8 µM and 16 µM in assay [6]. The MIC in assay [7] is 2 µM and 4 µM.

`CC[C@H](C)[C@H](NC(=O)[C@H](CCCN=C(N)N)NC(=O)[C@H](CCCN=C(N)N)NC(=O)[C@H](Cc1c[nH]c2ccccc12)NC(=O)[C@@H](N)Cc1ccccc1)C(=O)N[C@@H](CCCN=C(N)N)C(=O)N[C@H](C(=O)N[C@H](C(=O)N1CCC[C@H]1C(=O)N[C@H](C(=O)N[C@H](C(=O)N[C@@H](CC(N)=O)C(=O)N1CCC[C@H]1C(=O)N1CCC[C@H]1C(=O)N[C@@H](Cc1ccccc1)C(=O)N[C@@H](CC(C)C)C(=O)N[C@@H](CCC(N)=O)C(=O)N[C@@H](CCC(N)=O)C(=O)N[C@H](C(N)=O)[C@@H](C)O)C(C)C)C(C)C)[C@@H](C)O)C(C)C` [FWRRIRVTPVVNPPFLQQT]: the MIC in [8] and in [9] was no less than 109 µM in each case.

Consider `CC(C)C[C@H](NC(=O)[C@H](C)NC(=O)[C@H](CCCN=C(N)N)NC(=O)[C@@H](NC(=O)[C@H](CCC(N)=O)NC(=O)[C@H](CCCCN)NC(=O)[C@H](CCCCN)NC(=O)[C@H](C)NC(=O)[C@H](CC(C)C)NC(=O)[C@H](CCCCN)NC(=O)[C@H](C)NC(=O)CN)C(C)C)C(=O)NCC(=O)N[C@@H](CCCCN)C(=O)N[C@@H](Cc1ccccc1)C(=O)N[C@@H](Cc1ccccc1)C(=O)N[C@@H](CO)C(=O)N[C@@H](Cc1ccccc1)C(N)=O` [GAKLAKKQVRALGKFFSF], for which the MIC in assay [10] was no less than 64 µM; in [11], 8 µM (≈ 16 µg/mL); in assay [12], no less than 64 µM; in [13], 16 µM (≈ 31.9 µg/mL); in assay [14] it was no less than 32 µM; in assay [15], no less than 256 µM. Also, the MIC in assay [16] was no less than 32 µM; in assay [17], 8 µM (≈ 16 µg/mL); in [18], no less than 128 µM; in [7], 16 µM (≈ 31.9 µg/mL); in [19], no less than 128 µM.

As to `CC[C@H](C)[C@H](NC(=O)[C@@H](NC(=O)[C@H](CCCCN)NC(=O)[C@H](CO)NC(=O)[C@H](CCCCN)NC(=O)[C@H](CC(=O)O)NC(=O)[C@H](CO)NC(=O)[C@@H]1CCCN1C(=O)CNC(=O)[C@H](CO)NC(=O)[C@H](Cc1cnc[nH]1)NC(=O)[C@H](Cc1ccc(O)cc1)NC(=O)[C@@H](N)CCCCN)C(C)C)C(=O)N[C@@H](CO)C(=O)O` [KYHSGPSDKSKVIS], the MIC was no less than 65.2 µM in assay [20], no less than 65.2 µM in assay [21], greater than 65.2 µM in assay [22] and no less than 65.2 µM in assay [23].

For `CC[C@H](C)[C@H](NC(=O)[C@H](CCCCN)NC(=O)[C@H](CCC(N)=O)NC(=O)[C@H](CC(C)C)NC(=O)CNC(=O)[C@H](CCCCN)NC(=O)CNC(=O)[C@H](CC(C)C)NC(=O)[C@H](CCCCN)NC(=O)[C@H](CCCCN)NC(=O)[C@H](CCCN=C(N)N)NC(=O)[C@H](C)NC(=O)[C@H](CCCCN)NC(=O)[C@H](CCCN=C(N)N)NC(=O)[C@H](Cc1ccccc1)NC(=O)[C@H](Cc1ccccc1)NC(=O)[C@H](CCCCN)NC(=O)[C@@H](N)CO)C(=O)N[C@@H](CCCCN)C(=O)N[C@@H](CC(N)=O)C(=O)N[C@H](C(=O)N[C@@H](CC(C)C)C(=O)N[C@@H](CCCN=C(N)N)C(=O)N[C@@H](CCCCN)C(=O)N[C@@H](Cc1ccc(O)cc1)C(=O)O)C(C)C` [SKFFRKARKKLGKGLQKIKNVLRKY], the MIC in assay [24] worked out at 1.32 µM (≈ 4 µg/mL); in assay [25], 13.2 µM (≈ 40.1 µg/mL); in assay [26] it was 13.2 µM (≈ 40.1 µg/mL); in assay [27] it was 21.1 µM (≈ 64 µg/mL); in assay [28], 1.65 µM (≈ 5 µg/mL); in [29], 4.9 µM (≈ 14.9 µg/mL). The MIC came out at 21.1 µM (≈ 64 µg/mL) in [30]; 24.7 µM (≈ 75 µg/mL) in [31]; 4.9 µM (≈ 14.9 µg/mL) in assay [32]; 0.329 µM (≈ 1 µg/mL) in [33]; 13.2 µM (≈ 40.1 µg/mL) in assay [34]; 0.264 µM (≈ 0.8 µg/mL) in assay [7].

In the case of `CC[C@H](C)[C@H](NC(=O)[C@H](CCCCN)NC(=O)[C@H](Cc1cnc[nH]1)NC(=O)[C@H](CC(C)C)NC(=O)[C@H](CC(C)C)NC(=O)CNC(=O)[C@H](CC(N)=O)NC(=O)[C@@H](N)C(C)C)C(=O)N[C@@H](Cc1ccc(O)cc1)C(=O)NCC(=O)N[C@@H](CC(N)=O)C(=O)N[C@H](C(=O)N[C@@H](CCCN=C(N)N)C(=O)N[C@@H](Cc1ccc(O)cc1)C(=O)N[C@@H](CO)C(=O)O)[C@@H](C)CC` [VNGLLHKIYGNIRYS], the MIC was 8.93 µM (≈ 15.6 µg/mL) in assay [35]; 8.93 µM (≈ 15.6 µg/mL) in assay [36]; no less than 35.8 µM in assay [37]; no less than 143 µM in [38]; no less than 143 µM in [39]; 8.93 µM (≈ 15.6 µg/mL) in [40]. Further, in assay [41], the minimum inhibitory concentration (MIC) was greater than 143 µM.
